From patent US20210187488A1, “A METHOD OF SYNTHESISING A PT(II) COMPLEX; A PT(II) COMPLEX; USE OF SUCH A COMPLEX AS A PHOTOACTIVATABLE CATALYST IN A HYDROSILYLATION REACTION” (JOHNSON MATTHEY PUBLIC LIMITED COMPANY, priority 2017, published 2021)

Tests used:
[1] = Catalytic activity of comparative products in gelling of a siloxane polymer
Procedure: The brown solution gave an orange oil which was tested for catalytic activity in gelling of a siloxane polymer.
A 16.13 wt % aqueous solution of Pt(IV) nitrate (2.624 g, 2.17 mmol) was added to deionised water (50 mL) and a mixture of salicylaldehyde (2.45 mL, 2.8 g, 22.8 mmol) and NaHCO3 (0.765 g, 9.12 mmol) in EtOH (15 mL) was then added. The reaction mixture gave off gas and produced an orange precipitate. Stirring was continued at room temperature for 2 hours. The reaction mixture was then filtered to give an orange precipitate and an orange solution. The precipitate was washed with water and diethylether. […] The product was tested for catalytic activity but none was found. […] The major product appeared to be Pt^IV(HCO3)4.

[2] = Catalytic activity: time until gelling of siloxane composition after 60 s UV irradiation or in the dark; conditions: for Gelling time: 60 s UV
Procedure: The product of Example 3 was tested for catalytic activity.
5 mg of the product was dissolved in 1 mL dichloromethane to provide a solution (‘Solution A’).
The following ingredients were added to a UV-grade plastic cuvette: • vinyl terminated polydimethyl siloxane 100 cSt DMS V21 (2g); • (45-55% methylhydrosiloxane)dimethylsiloxane copolymer 10-15 cSt HMS-501 (0.108 mL); • Solution A (25 μL).
The contents of the cuvette were stirred briefly with a spatula to ensure thorough mixing and a 10 mm magnetic flea was added, before sealing with parafilm.
The cuvette was placed in a UV-lamp box. The positioning of samples in the box was kept the same throughout testing (154 mm from ground to top of cuvette; 114 mm between end of housing and front of cuvette).
A 300 W ozone-free Xenon lamp was used (visible to 300 nm). A water-cooled filter removes some of the visible spectrum.
The stirrer speed was set to the 12 o'clock position and the lamp was switched on for 60 seconds only. The time taken from the switching on of the lamp to the stirrer no longer being able to complete a turn was noted as a measure of activity.
Results are provided in the Table below. ‘Irradiated’ indicates samples exposed to the 60 s UV radiation. ‘Dark’ indicates samples left in darkness without any irradiation.
(§1) All other aspects of the test were the same as Example 16. The results reflect gelling time after the 60 s UV irradiation.
The testing was done as in Example 16, except that in the initial step the following four solutions were prepared:
Different amounts of the respective solutions, as shown in the Tables below, were added to the cuvette but all other aspects of the test were the same as Example 16.
as §1

[3] = Thermogravimetric analysis (thermal stability); format: physicochemical; conditions: TGA
Excerpt: (which is the boiling point for salicylaldehyde). Above this temperature the ligand is lost, leaving behind the platinum metal.

[4] = Stability in dichloromethane during crystal growth; format: physicochemical; conditions: dichloromethane (DCM/hexane crystal growth, one week)
Excerpt: The following different methods were attempted in order to provide suitable crystals for testing. • 1. Growth in acetone/water medium. […] Growth in DCM/hexane. This formed two distinct layers with slow mixing occurring at the interface. […] Growth in chloroform/hexane. This formed two distinct layers with slow mixing occurring at the interface. Slightly larger crystals were formed, but still too small. It took longer for the product to turn brown. • 4. Growth in chloroform: The product was dissolved in chloroform with heating, and immediately filtered before being stored in the freezer. Needle like crystals were formed • 5. Growth in chloroform/hexane in freezer. Needle like crystals were formed

[5] = Solubility in various solvents, Pt content by ICP-AES; format: physicochemical; conditions: 10 mg in 1 mL, room temperature, 3 h, filtered
Procedure: The solubility of the product of Example 3 was tested in various solvents.
In each case, 10 mg of the complex was stirred in 1 mL of each solvent at room temperature for three hours. The solvent was then filtered. One hundred fold dilutions of the samples into methoxypropanol were then carried out and Pt content was determined by ICP-AES using a Spectro Ciros Vision ICP-OES. Yttrium was employed as an internal standard at a concentration of 5 ppm.

[6] = Qualitative solubility observations; format: physicochemical
Procedure: Stirring was continued at room temperature for 2 hours. […] The precipitate was washed with water and diethylether.
An excess of salicylaldehyde (2 mL, 2.28 g, 18.62 mmol) in EtOH (20 mL) was added and the reaction mixture was heated at 73° C. overnight.
Five different samples were studied: • 1. Vinyl-terminated polydimethylsiloxane 100 cSt • 2.

[7] = ECHA (European Chemicals Agency) website; cited from earlier work
[8] = 25 μL of toluene solution, 1.77 mM
[9] = 50 μL of toluene solution, 1.77 mM
[10] = 75 μL of toluene solution, 1.77 mM
[11] = 200 μL of toluene solution, 1.77 mM
[12] = 360 μL of toluene solution, 1.77 mM

## O=C([O-])O.O=C([O-])O.O=C([O-])O.O=C([O-])O.[Pt+4] [Comparative Example 6, Pt^IV(HCO3)4]
[1]
  Catalytic activity: none

## CC(=O)/C=C(/C)O.CC(=O)/C=C(/C)O.[Pt] [Solution E, Pt(acac)2]
[2]; [8]
  Gelling time: 3544 s
[2]; [9]
  Gelling time: 1350 s
[2]; [10]
  Gelling time: 938 s
[2]; 100 μL of toluene solution, 1.77 mM
  Gelling time: 793 s
[2]; [11]
  Gelling time: 551 s
[2]; [12]
  Gelling time: 486 s

## Pt(sal)2 [Example 3]
[3]
  Thermal stability, stable up to: up to 200 °C
[4]
  Stability in solvent: not completely stable
[5]; Acetone:MeCN (1:1)
  Pt concentration: 698 mg/L
[5]; Acetone
  Pt concentration: 646 mg/L
[5]; Chloroform
  Pt concentration: 3260 mg/L
[5]; EtOH
  Pt concentration: 103 mg/L
[5]; IPA
  Pt concentration: 43.4 mg/L
[5]; MIBK
  Pt concentration: 369 mg/L
[5]; MeCN:DMSO (80:20)
  Pt concentration: 1220 mg/L
[5]; MeCN
  Pt concentration: 588 mg/L
[5]; Toluene
  Pt concentration: 346 mg/L
[5]; Water:MeCN (1:1)
  Pt concentration: 167 mg/L
[5]; Water
  Pt concentration: 42.1 mg/L
[2]; dark, no irradiation, 25 μL of 5 mg in 1 mL dichloromethane
  Time until gelling: 13,500 s
[2]; irradiated (60 s UV), 25 μL of 5 mg in 1 mL dichloromethane
  Time until gelling: 165 s

## Pt(sal)2 [Example 9]
[6]; MeOH (washing)
  Solubility: only very slightly soluble

## Pt(sal)2 [Example 1]
[6]; 1 mg/mL in acetone
  Solubility (note on sample): saturated solution, prone to some precipitation
[6]; 1 mg/mL in vinyl-terminated polydimethylsiloxane
  Solubility (note on sample): poor solubility, solution very cloudy and prone to precipitation

## CC(=O)/C=C(/C)O.CC(=O)/C=C(/C)O.[Pt] [Solution C, Pt(acac)2]
[2]; 25 μL of DCM solution, 14.4 mM
  Gelling time: 1234 s
[2]; 50 μL of DCM solution, 14.4 mM
  Gelling time: 719 s
[2]; 75 μL of DCM solution, 14.4 mM
  Gelling time: 506 s
[2]; 100 μL of DCM solution, 14.4 mM
  Gelling time: 535 s

## CC1=[C-]CC=C1.[CH3-].[CH3-].[CH3-].[Pt+4] [(MeCp)PtMe3]
[7]
  Hazard classification: fatal if swallowed, fatal in contact with skin, very toxic to aquatic life, causes serious eye irritation, may cause an allergic skin reaction, causes skin irritation and may cause respiratory irritation

## Pt(sal)2 [Example 7]
[2]; after 60 s UV irradiation, 11 mg in 1 mL dichloromethane
  Time until gelling: 208 s

## Pt(sal)2 [Solution D]
[2]; [8]
  Gelling time: 1263 s
[2]; [9]
  Gelling time: 627 s
[2]; [10]
  Gelling time: 415 s
[2]; [11]
  Gelling time: 231 s
[2]; [12]
  Gelling time: 126 s
